Common to all, as to assay: NCI60 one-dose screen
Holding throughout (type): cell-based

The subject of one assay is SK-OV-3. The conditions noted are these: Homo sapiens; SK-OV-3, 10 μM; read-out: Growth percent. The method in brief:
(§1)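 A single 10 µM concentration was applied for 48 h in RPMI 1640 medium with 5% FBS at 37 °C. Values are growth percentages on a scale where 100 means no inhibition and negative numbers mean lethality.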

Another assay relates to NCI-H23. The settings on record: Homo sapiens; NCI-H23, 10 μM; read-out: Growth percent. The procedure, abridged: as §1
Another assay concerns SK-MEL-2. The conditions noted are these: Homo sapiens; SK-MEL-2, 10 μM; read-out: Growth percent. The procedure, abridged:
as §1

In the next assay the test system is NCI/ADR-RES. The settings on record: Homo sapiens, read-out: Growth percent. The method in brief:
as §1

Another assay has as its system SF-268. The conditions noted are these: Homo sapiens; SF-268, 10 μM; read-out: Growth percent. The procedure, abridged:
as §1

The subject of a further assay is HCT-116. The conditions noted are these: Homo sapiens; HCT-116, 10 μM; read-out: Growth percent. The method in brief:
as §1

For a further assay, the system named is SF-295. The conditions noted are these: Homo sapiens; SF-295, 10 μM; read-out: Growth percent. The procedure, abridged:
as §1

A further assay relates to RPMI-8226. The conditions noted are these: Homo sapiens; RPMI-8226, 10 μM; read-out: Growth percent. The procedure, abridged:
as §1

The next assay concerns K-562. The settings on record: Homo sapiens, K562; K-562, 10 μM; read-out: Growth percent. The procedure, abridged: as §1
A further assay relates to SNB-75. The settings on record: Homo sapiens; SNB-75, 10 μM; read-out: Growth percent. The method in brief:
as §1

The next assay concerns OVCAR-8. The conditions noted are these: Homo sapiens; OVCAR-8, 10 μM; read-out: Growth percent. The procedure, abridged: as §1
Another assay relates to DU-145. The conditions noted are these: Homo sapiens; DU-145, 10 μM; read-out: Growth percent. The procedure, abridged:
as §1

In the next assay the test system is OVCAR-3. The conditions noted are these: Homo sapiens; OVCAR-3, 10 μM; read-out: Growth percent. The method in brief:
as §1

For the next assay, the system named is SN12C. The settings on record: Homo sapiens, read-out: Growth percent. The procedure, abridged:
as §1

The subject of another assay is OVCAR-5. The settings on record: Homo sapiens; OVCAR-5, 10 μM; read-out: Growth percent. The procedure, abridged: as §1
In the next assay the test system is MOLT-4. The conditions noted are these: Homo sapiens; MOLT-4, 10 μM; read-out: Growth percent. The procedure, abridged: as §1
The next assay deals with NCI-H460. The settings on record: Homo sapiens; NCI-H460, 10 μM; read-out: Growth percent. The procedure, abridged: as §1
For the next assay, the system named is OVCAR-4. The conditions noted are these: Homo sapiens; OVCAR-4, 10 μM; read-out: Growth percent. The procedure, abridged: as §1
The test system of a further assay is HL-60(TB). The settings on record: Homo sapiens, read-out: Growth percent. The procedure, abridged: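 DMSO-solubilised compounds, 10 µM final, were added to cells preincubated 24 h, then incubated 48 h (37 °C, 5% CO2). Endpoint: SRB absorbance at 515 nm, expressed as growth relative to control and time zero.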
A further assay relates to UO-31. The conditions noted are these: Homo sapiens; UO-31, 10 μM; read-out: Growth percent. The procedure, abridged: as §1

Regarding `COc1c(C)cc([P+](CCCCOc2cc(O)c3c(=O)cc(-c4ccccc4)oc3c2)(c2cc(C)c(OC)c(C)c2)c2cc(C)c(OC)c(C)c2)cc1C` [3f], the activity at 10 µM in the assay with SK-OV-3 was -58.3%; with NCI-H23, -77.3%; with SK-MEL-2 it was -77.6%; in the assay with NCI/ADR-RES, -66.8%; in the assay on SF-268 it was -66.5%; in the assay with HCT-116, -47.6%. Also, the activity at 10 µM was -63.6% with SF-295; -42.9% in the assay with RPMI-8226; 6.85% with K-562; -71% in the assay on SNB-75; -68.1% in the assay with OVCAR-8; -92.7% with DU-145. Besides, the activity at 10 µM in the assay with OVCAR-3 was -69.8%; with SN12C, -77.4%; with OVCAR-5 it was -87.8%; in the assay on MOLT-4, -42.5%; in the assay on NCI-H460 it was -58.6%; with OVCAR-4 it was -65.5%. For the same compound, the activity at 10 µM is -27.7% in the assay on HL-60(TB) and -59.6% with UO-31.
Turning to `O=c1cc(-c2ccccc2)oc2cc(OCCCC[P+](c3ccccc3)(c3ccccc3)c3ccccn3)cc(O)c12` [3h], the activity at 10 µM in the assay on SK-OV-3 was -76.5%; in the assay with NCI-H23, -89.3%; in the assay on SK-MEL-2, -95.4%; with NCI/ADR-RES, -41.3%; in the assay with SF-268 it was -67.6%; in the assay on HCT-116, -61.6%. Besides, the activity at 10 µM in the assay on SF-295 is -92.7%; in the assay on RPMI-8226 it was -35.3%; in the assay on K-562 it was -51.3%; in the assay on SNB-75, -47.3%; in the assay on OVCAR-8, -91.6%; in the assay with DU-145, -95.3%. Moreover, the activity at 10 µM is -93.7% in the assay on OVCAR-3; -91.4% in the assay on SN12C; -93.4% with OVCAR-5; 21.1% with MOLT-4; -84.2% in the assay with NCI-H460; -51.2% with OVCAR-4. For the same compound, the activity at 10 µM in the assay on HL-60(TB) was 0.68%; with UO-31, -94%.
Regarding `O=c1cc(-c2ccccc2)oc2cc(O)cc(O)c12` [compound 2, 5,7-dihydroxyflavone, reference compound], the activity at 10 µM with SK-OV-3 worked out at 128%; in the assay with NCI-H23 it was 92.6%; in the assay with SK-MEL-2 it was 110%; in the assay on NCI/ADR-RES, 92.8%; with SF-268 it was 102%; in the assay with HCT-116, 82.7%. Further, the activity at 10 µM with SF-295 amounted to 99.9%; in the assay on RPMI-8226, 101%; in the assay on K-562 it was 96.8%; in the assay with SNB-75, 89%; in the assay on OVCAR-8, 95.2%; with DU-145, 92%. The activity at 10 µM in the assay with OVCAR-3 came out at 97.6%; in the assay with SN12C it was 85.8%; with OVCAR-5, 99.1%; in the assay on MOLT-4 it was 106%; in the assay with NCI-H460, 98.3%; in the assay with OVCAR-4, 112%. Moreover, the activity at 10 µM in the assay on HL-60(TB) worked out at 116%; in the assay with UO-31, 89.4%.

The values above are taken from article PMC12652692, “Synthesis and In Vitro Anticancer Evaluation of Novel Phosphonium Derivatives of Chrysin” (International Journal of Molecular Sciences, 2025).
